Earlier results in US20260041939A1, “METHODS FOR THE TREATMENT OF HY[…] TRANSCRANIAL-FOCUSED-ULTRASOUND” (SUNNYBROOK RESEARCH INSTITUTE, priority 2022, published 2026).

Test system: c-FOS expression
Details: microinjection into the tuberomammillary nucleus of rats

## CCCC(C)C1(CC)C(=O)NC(=O)NC1=O (stereo not drawn) [Pentobarbital, pentobarbital]
  c-FOS expression in the locus coeruleus: unchanged
  c-FOS expression in the tuberomammillary nucleus: suppress
  c-FOS expression in the ventrolateral preoptic nucleus (VLPO): increase
